This note sets out measurements from US20240158472A1, “FERRITIN VARIANTS WITH INCREASED STABILITY AND COMPLEXATION ABILITY” (Cellis AG, priority 2021, published 2024).

The experiment deals with siRNA. The experiment can be described thus: Association of ferritin with siRNA, gel. The experiment is classed as binding. The method, then: 1 ml reaction containing 2 mg Ft and 4 ug siRNA in DPBS, pH lowered to values as indicated (2.5, 3.2, 4.4, 5.6 and 6.8, respectively). Samples were incubated 15 min in RT, then NaOH was added to adjust pH to neutral (pH 7). Non-associated free siRNA was removed by 4 centrifugation steps on Amicons with 100 kDa cut-off.

Regarding “Q11E mutant: Examples 3-8 ferritin variant based on Q11E with added K54E, K72E, K87Q, K144E, C91S, C103S and C131S”, the “association with siRNA” value is, setting by setting: (incubated in pH 2.4 and 3.2) “not”; (incubated in pH range 4.4 to 6.8, 2 mg Ft and 4 ug siRNA) “associated with siRNA”.
